{"source": "ChEMBL document CHEMBL2331505", "about": "“Synthesis of quinoline derivatives: discovery of a potent and selective phosphodiesterase 5 inhibitor for the treatment of Alzheimer's disease” (Eur J Med Chem, 2013)", "key": {"[1]": {"molecular_target": "cGMP-specific 3',5'-cyclic phosphodiesterase (Homo sapiens, UniProt O76074)", "test": "Inhibition of PDE5 (unknown origin) using FAM-cGMP as substrate after 60 mins by fluorescence assay"}, "Phosphodiesterase 8": {"molecular_target": "Phosphodiesterase 8 (Homo sapiens, UniProt O95263+O60658)", "test": "Inhibition of PDE8 (unknown origin) using FAM-cAMP as substrate after 60 mins by fluorescence assay", "type": "protein assay"}, "Homo sapiens [2]": {"species": "Homo sapiens", "test": "Selectivity ratio of IC50 for PDE10 (unknown origin) to IC50 for PDE5 (unknown origin)"}, "Homo sapiens [3]": {"species": "Homo sapiens", "test": "Selectivity ratio of IC50 for PDE11 (unknown origin) to IC50 for PDE5 (unknown origin)"}, "Homo sapiens [4]": {"species": "Homo sapiens", "test": "Selectivity ratio of IC50 for PDE9 (unknown origin) to IC50 for PDE5 (unknown origin)"}, "Homo sapiens [5]": {"species": "Homo sapiens", "test": "Selectivity ratio of IC50 for PDE7 (unknown origin) to IC50 for PDE5 (unknown origin)"}, "Homo sapiens [6]": {"species": "Homo sapiens", "test": "Selectivity ratio of IC50 for PDE8 (unknown origin) to IC50 for PDE5 (unknown origin)"}, "Homo sapiens [7]": {"species": "Homo sapiens", "test": "Selectivity ratio of IC50 for PDE6 (unknown origin) to IC50 for PDE5 (unknown origin)"}, "Homo sapiens [8]": {"species": "Homo sapiens", "test": "Selectivity ratio of IC50 for PDE4 (unknown origin) to IC50 for PDE5 (unknown origin)"}, "Homo sapiens [9]": {"species": "Homo sapiens", "test": "Selectivity ratio of IC50 for PDE3 (unknown origin) to IC50 for PDE5 (unknown origin)"}, "Homo sapiens [10]": {"species": "Homo sapiens", "test": "Selectivity ratio of IC50 for PDE1 (unknown origin) to IC50 for PDE5 (unknown origin)"}, "Homo sapiens [11]": {"species": "Homo sapiens", "test": "Selectivity ratio of IC50 for PDE2 (unknown origin) to IC50 for PDE5 (unknown origin)"}, "Phosphodiesterase 1": {"molecular_target": "Phosphodiesterase 1 (Homo sapiens, UniProt P54750+Q01064+Q14123)", "test": "Inhibition of PDE1 (unknown origin) using FAM-cGMP and FAM-cAMP as substrate after 60 mins by fluorescence assay", "type": "protein assay"}, "[12]": {"molecular_target": "Dual 3',5'-cyclic-AMP and -GMP phosphodiesterase 11A (Homo sapiens, UniProt Q9HCR9)", "sequence (Q9HCR9 whole entry)": "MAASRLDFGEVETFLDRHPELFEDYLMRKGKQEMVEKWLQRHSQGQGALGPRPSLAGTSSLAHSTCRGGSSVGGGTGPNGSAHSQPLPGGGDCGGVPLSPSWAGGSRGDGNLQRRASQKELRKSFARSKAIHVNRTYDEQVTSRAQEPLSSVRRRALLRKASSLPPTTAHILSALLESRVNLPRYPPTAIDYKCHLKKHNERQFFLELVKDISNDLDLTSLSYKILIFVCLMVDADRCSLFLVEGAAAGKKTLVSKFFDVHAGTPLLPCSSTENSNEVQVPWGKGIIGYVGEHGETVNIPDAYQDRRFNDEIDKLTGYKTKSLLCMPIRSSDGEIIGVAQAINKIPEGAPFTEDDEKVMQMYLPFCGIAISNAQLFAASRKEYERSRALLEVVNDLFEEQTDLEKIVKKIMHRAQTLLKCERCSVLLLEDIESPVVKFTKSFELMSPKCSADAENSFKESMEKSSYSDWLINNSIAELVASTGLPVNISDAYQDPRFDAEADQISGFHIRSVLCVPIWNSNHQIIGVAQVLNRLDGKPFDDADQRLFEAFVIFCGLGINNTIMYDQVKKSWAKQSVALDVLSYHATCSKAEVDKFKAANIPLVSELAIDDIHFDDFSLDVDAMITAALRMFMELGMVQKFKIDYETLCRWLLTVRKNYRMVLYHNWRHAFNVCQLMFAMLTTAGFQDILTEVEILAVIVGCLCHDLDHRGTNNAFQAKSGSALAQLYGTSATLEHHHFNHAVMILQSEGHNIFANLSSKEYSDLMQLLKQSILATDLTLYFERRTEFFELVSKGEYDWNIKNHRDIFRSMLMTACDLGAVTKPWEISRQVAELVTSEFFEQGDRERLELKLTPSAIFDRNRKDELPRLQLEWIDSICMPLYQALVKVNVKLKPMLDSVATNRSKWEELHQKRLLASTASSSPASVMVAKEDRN", "test": "Inhibition of PDE11 (unknown origin) using FAM-cGMP and FAM-cAMP as substrate after 60 mins by fluorescence assay"}, "[13]": {"molecular_target": "High affinity cGMP-specific 3',5'-cyclic phosphodiesterase 9A (Homo sapiens, UniProt O76083)", "sequence (O76083 whole entry)": "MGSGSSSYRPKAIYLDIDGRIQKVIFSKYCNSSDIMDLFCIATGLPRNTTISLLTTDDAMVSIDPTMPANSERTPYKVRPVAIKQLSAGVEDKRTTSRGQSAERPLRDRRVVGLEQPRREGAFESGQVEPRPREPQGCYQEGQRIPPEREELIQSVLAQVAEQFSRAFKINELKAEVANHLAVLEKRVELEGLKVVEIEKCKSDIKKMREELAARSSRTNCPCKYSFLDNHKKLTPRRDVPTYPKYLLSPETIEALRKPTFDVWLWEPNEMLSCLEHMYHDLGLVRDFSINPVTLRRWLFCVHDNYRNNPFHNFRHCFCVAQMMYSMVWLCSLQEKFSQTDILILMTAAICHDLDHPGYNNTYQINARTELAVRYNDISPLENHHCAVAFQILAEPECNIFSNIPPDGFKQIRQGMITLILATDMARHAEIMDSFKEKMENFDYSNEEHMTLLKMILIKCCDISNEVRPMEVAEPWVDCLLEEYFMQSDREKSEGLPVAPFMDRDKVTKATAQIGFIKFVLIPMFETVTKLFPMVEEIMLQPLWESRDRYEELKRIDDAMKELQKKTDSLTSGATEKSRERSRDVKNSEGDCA", "test": "Inhibition of PDE9 (unknown origin) using FAM-cGMP as substrate after 60 mins by fluorescence assay"}, "[14]": {"molecular_target": "cAMP and cAMP-inhibited cGMP 3',5'-cyclic phosphodiesterase 10A (Homo sapiens, UniProt Q9Y233)", "sequence (Q9Y233 whole entry)": "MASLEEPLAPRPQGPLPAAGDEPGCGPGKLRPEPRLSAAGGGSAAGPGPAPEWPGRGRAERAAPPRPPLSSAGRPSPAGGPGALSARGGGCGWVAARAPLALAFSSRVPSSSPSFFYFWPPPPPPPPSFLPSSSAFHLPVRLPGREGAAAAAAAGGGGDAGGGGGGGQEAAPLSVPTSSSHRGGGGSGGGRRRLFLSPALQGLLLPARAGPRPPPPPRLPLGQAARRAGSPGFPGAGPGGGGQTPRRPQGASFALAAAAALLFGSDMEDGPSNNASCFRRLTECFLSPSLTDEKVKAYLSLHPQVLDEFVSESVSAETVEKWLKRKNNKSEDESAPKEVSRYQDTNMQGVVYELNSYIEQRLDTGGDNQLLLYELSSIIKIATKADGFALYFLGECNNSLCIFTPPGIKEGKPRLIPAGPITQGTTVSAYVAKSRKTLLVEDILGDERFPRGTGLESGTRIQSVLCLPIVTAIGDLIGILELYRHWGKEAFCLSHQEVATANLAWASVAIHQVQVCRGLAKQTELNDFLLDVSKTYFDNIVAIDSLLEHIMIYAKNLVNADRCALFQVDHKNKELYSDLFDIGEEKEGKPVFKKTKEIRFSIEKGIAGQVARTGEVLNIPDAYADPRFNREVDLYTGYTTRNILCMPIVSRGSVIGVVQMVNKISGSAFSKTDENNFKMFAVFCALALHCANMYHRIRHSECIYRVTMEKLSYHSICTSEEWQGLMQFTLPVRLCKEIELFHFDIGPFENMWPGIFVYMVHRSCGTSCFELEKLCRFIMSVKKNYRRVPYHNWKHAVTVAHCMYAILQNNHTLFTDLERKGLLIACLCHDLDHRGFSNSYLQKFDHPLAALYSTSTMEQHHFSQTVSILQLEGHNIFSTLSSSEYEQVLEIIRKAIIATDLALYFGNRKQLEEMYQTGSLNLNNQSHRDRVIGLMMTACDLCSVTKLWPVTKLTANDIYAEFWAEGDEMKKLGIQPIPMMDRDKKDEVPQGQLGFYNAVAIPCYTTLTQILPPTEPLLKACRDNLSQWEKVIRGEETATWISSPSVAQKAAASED", "test": "Inhibition of PDE10 (unknown origin) using FAM-cGMP and FAM-cAMP as substrate after 60 mins by fluorescence assay"}, "Phosphodiesterase 7": {"molecular_target": "Phosphodiesterase 7 (Homo sapiens, UniProt Q13946+Q9NP56)", "test": "Inhibition of PDE7 (unknown origin) using FAM-cAMP as substrate after 60 mins by fluorescence assay", "type": "protein assay"}, "Phosphodiesterase 6": {"molecular_target": "Phosphodiesterase 6", "test": "Inhibition of PDE6 (unknown origin) using FAM-cGMP as substrate after 60 mins by fluorescence assay", "type": "protein assay, Homo sapiens"}, "Phosphodiesterase 4": {"molecular_target": "Phosphodiesterase 4 (Homo sapiens, UniProt P27815+Q08499+Q07343+Q08493)", "test": "Inhibition of PDE4 (unknown origin) using FAM-cAMP as substrate after 60 mins by fluorescence assay", "type": "protein assay"}, "Phosphodiesterase 3": {"molecular_target": "Phosphodiesterase 3 (Homo sapiens, UniProt Q14432+Q13370)", "test": "Inhibition of PDE3 (unknown origin) using FAM-cGMP and FAM-cAMP as substrate after 60 mins by fluorescence assay", "type": "protein assay"}, "[15]": {"molecular_target": "cGMP-dependent 3',5'-cyclic phosphodiesterase (Homo sapiens, UniProt O00408)", "sequence (O00408 whole entry)": "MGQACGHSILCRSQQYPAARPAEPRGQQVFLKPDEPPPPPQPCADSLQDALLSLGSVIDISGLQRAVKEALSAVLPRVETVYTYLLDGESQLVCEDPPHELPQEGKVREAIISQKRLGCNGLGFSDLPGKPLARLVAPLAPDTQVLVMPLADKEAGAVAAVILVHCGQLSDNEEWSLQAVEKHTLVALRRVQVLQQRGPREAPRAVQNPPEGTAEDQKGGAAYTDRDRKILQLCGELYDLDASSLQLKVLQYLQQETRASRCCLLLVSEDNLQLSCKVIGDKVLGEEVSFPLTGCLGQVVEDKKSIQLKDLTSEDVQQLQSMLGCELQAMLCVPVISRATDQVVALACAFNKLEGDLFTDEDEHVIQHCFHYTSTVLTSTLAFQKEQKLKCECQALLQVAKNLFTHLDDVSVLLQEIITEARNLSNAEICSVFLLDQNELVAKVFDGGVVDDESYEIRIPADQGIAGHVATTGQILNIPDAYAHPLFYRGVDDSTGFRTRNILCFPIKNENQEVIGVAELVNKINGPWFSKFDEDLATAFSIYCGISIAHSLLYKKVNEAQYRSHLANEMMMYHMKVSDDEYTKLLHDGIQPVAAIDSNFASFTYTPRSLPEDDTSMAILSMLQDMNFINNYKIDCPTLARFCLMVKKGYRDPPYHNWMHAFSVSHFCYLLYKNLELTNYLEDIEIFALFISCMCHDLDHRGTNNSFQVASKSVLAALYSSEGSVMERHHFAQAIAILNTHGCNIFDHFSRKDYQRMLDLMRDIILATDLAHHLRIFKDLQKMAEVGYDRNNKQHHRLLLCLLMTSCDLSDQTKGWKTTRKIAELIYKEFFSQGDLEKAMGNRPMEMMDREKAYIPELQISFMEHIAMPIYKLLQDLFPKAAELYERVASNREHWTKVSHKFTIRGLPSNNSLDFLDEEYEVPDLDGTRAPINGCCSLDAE", "test": "Inhibition of PDE2 (unknown origin) using FAM-cGMP and FAM-cAMP as substrate after 60 mins by fluorescence assay"}}, "data": [{"compound": "COc1ccc(CNc2c(CO)cnc3c(NC4CC4)cc(C#N)cc23)cc1Cl", "values": [{"measurement": "IC50", "setting": "[1]", "result": 0.0041, "unit": "µM"}]}, {"compound": "CCCc1nc(C)c2c(=O)nc(-c3cc(S(=O)(=O)N4CCN(CC)CC4)ccc3OCC)[nH]n12", "values": [{"measurement": "IC50", "setting": "Phosphodiesterase 8", "result": "> 10", "unit": "µM"}]}, {"compound": "COc1ccc(CNc2c(CO)cnc3c(NCCN(C)C)cc(C#N)cc23)cc1Cl", "values": [{"measurement": "IC50", "setting": "[1]", "result": 0.0043, "unit": "µM"}]}, {"compound": "COc1ccc(CNc2c(CO)cnc3c(N(C)C)cc(C#N)cc23)cc1Cl", "values": [{"measurement": "Ratio IC50", "setting": "Homo sapiens [2]", "result": "> 10000"}, {"measurement": "Ratio IC50", "setting": "Homo sapiens [3]", "result": "> 10000"}, {"measurement": "Ratio IC50", "setting": "Homo sapiens [4]", "result": "> 10000"}, {"measurement": "Ratio IC50", "setting": "Homo sapiens [5]", "result": "> 10000"}, {"measurement": "Ratio IC50", "setting": "Homo sapiens [6]", "result": "> 10000"}, {"measurement": "Ratio IC50", "setting": "Homo sapiens [7]", "result": 12800}, {"measurement": "Ratio IC50", "setting": "Homo sapiens [8]", "result": "> 10000"}, {"measurement": "Ratio IC50", "setting": "Homo sapiens [9]", "result": "> 10000"}, {"measurement": "Ratio IC50", "setting": "Homo sapiens [10]", "result": "> 10000"}, {"measurement": "Ratio IC50", "setting": "Homo sapiens [11]", "result": "> 10000"}, {"measurement": "IC50", "setting": "Phosphodiesterase 1", "result": "> 10", "unit": "µM"}, {"measurement": "IC50", "setting": "[12]", "result": "> 10", "unit": "µM"}, {"measurement": "IC50", "setting": "[13]", "result": "> 10", "unit": "µM"}, {"measurement": "IC50", "setting": "[14]", "result": "> 10", "unit": "µM"}, {"measurement": "IC50", "setting": "Phosphodiesterase 8", "result": "> 10", "unit": "µM"}, {"measurement": "IC50", "setting": "Phosphodiesterase 7", "result": "> 10", "unit": "µM"}, {"measurement": "IC50", "setting": "Phosphodiesterase 6", "result": 5.1, "unit": "µM"}, {"measurement": "IC50", "setting": "Phosphodiesterase 4", "result": "> 10", "unit": "µM"}, {"measurement": "IC50", "setting": "Phosphodiesterase 3", "result": "> 10", "unit": "µM"}, {"measurement": "IC50", "setting": "[15]", "result": "> 10", "unit": "µM"}, {"measurement": "IC50", "setting": "[1]", "result": 0.0004, "unit": "µM"}]}]}
